Data published in patent US11130750B2, “Calcium channel inhibitors” (Cavion, Inc., priority 2017, dated 2021).

tested on: Human Glioma cancer cell line U251; assay: Cell Proliferation Assay by CCK-8 Reagent; type: cell-based; conditions: Homo sapiens, U-251, 72 h, U251 cells, 72 hours incubation, CCK-8, % viability vs vehicle control
Procedure: Human Glioma cancer cell line U251 was maintained in DMEM (Gibco, Cat #10569-10) supplemented with 10% fetal bovine serum inactivated at 56° C. (Gibco, Cat #10082-147), 100 U/mL penicillin, and 100 μg/mL streptomycin (Gibco, Cat #15140-122) at 37° C. and 1% MEM non-essential amino acid (Sigma, Cat #M7145) in a humid atmosphere containing 5% CO2. The cells were seeded at 2.5×10^3 cells/well in a 96 well plate (BD falcon, Cat #353072) with 200 pt volume/well and kept in 37° C./5% CO2 incubator for 0/N incubation. The seeding density was optimized previously based on growth curve. On the next day, plated cells were incubated with each test compounds at eight different concentrations (100, 50, 25, 12.5, 6.25, 3.125, 1.5 and 0.78) in triplicates. DMSO was used as a Vehicle control and Culture medium was used as blank control for the assay in each plate. The percentage of DMSO was kept uniform across the plate as <1%. The compound treated cells were incubated in 37° C./5% CO2 incubator for 72 hours. After incubation period, […] CCK-8 reagent (Dojindo, Cat #CK04) was added in all the wells and plate was kept in 37° C./5% CO2 incubator for 3 hours. After CCK-8 incubation, absorbance was measured @ 450 nm using Spectrophotometer (BMG, Omega Polar Star). % Viability values at each concentration were calculated with respect to Vehicle control and EC50 values were calculated using graph pad prism software and are shown in Table A.

Compound	EC50 [µM]
CCN(CC)CCNC(=O)O[C@]1(CCN(C)CCC(C)(C)c2nc3ccccc3[nH]2)CCc2cc(F)ccc2[C@@H]1C(C)C [Example 14, (1S,2S)-2-(2-((3-(1H-Benzo[d]imidazol-2-yl)-3-methylbutyl)(methyl)amino)ethyl)-6-fluoro-1-isopropyl-1,2,3,4-tetrahydronaphthalen-2-yl (2-(diethylamino)ethyl)carbamate]	3.8
Cc1ccc(C)c2[nH]c(CCCN(C)CC[C@@]3(OC(=O)N(C)C)CCc4cc(F)ccc4[C@@H]3C(C)C)nc12 [Example 16, (1S,2S)-2-(2-((3-(4,7-dimethyl-1H-benzo[d]imidazol-2-yl)propyl)(methyl)amino)ethyl)-6-fluoro-1-isopropyl-1,2,3,4-tetrahydronaphthalen-2-yl dimethylcarbamate]	6
CC(C)[C@H]1c2ccc(F)cc2CC[C@@]1(CCN(C)CCC(C)(C)c1nc2ccccc2[nH]1)OC(=O)NCCN1CCCC1 [Example 13, (1S,2S)-2-(2-((3-(1H-Benzo[d]imidazol-2-yl)-3-methylbutyl)(methyl)amino)ethyl)-6-fluoro-1-isopropyl-1,2,3,4-tetrahydronaphthalen-2-yl (2-(pyrrolidin-1-yl)ethyl)carbamate]	4.6
CNC(=O)OC1(CCN(C)CCCc2nc3c(C)ccc(C)c3[nH]2)COc2cc(F)ccc2[C@@H]1C(C)C (stereo partly drawn) [Example 21A, (4S)-3-(2-((3-(4,7-Dimethyl-1H-benzo[d]imidazol-2-yl)propyl)(methyl)amino)ethyl)-7-fluoro-4-isopropylchroman-3-yl methylcarbamate]	7
CC(C)[C@H]1c2ccc(F)cc2CC[C@@]1(CCN(C)CCC(C)(C)c1nc2ccccc2[nH]1)OC(=O)NCCN(C)C [Example 11, (1S,2S)-2-(2-((3-(1H-Benzo[d]imidazol-2-yl)-3-methylbutyl)(methyl)amino)ethyl)-6-fluoro-1-isopropyl-1,2,3,4-tetrahydronaphthalen-2-yl (2-(dimethylamino)ethyl)carbamate]	2.5
CC(C)[C@H]1c2ccc(F)cc2CC[C@@]1(CCN(C)CCC(C)(C)c1nc2ccccc2[nH]1)OC(=O)N1CCOCC1 [Example 9, (1S,2S)-2-(2-((3-(1H-Benzo[d]imidazol-2-yl)-3-methylbutyl)(methyl)amino)ethyl)-6-fluoro-1-isopropyl-1,2,3,4-tetrahydronaphthalen-2-yl morpholine-4-carboxylate]	68
COCCNC(=O)O[C@]1(CCN(C)CCCc2nc3c(OC)ccc(OC)c3[nH]2)CCc2cc(F)ccc2[C@@H]1C(C)C [Example 6, (1S,2S)-2-(2-((3-(4,7-Dimethoxy-1H-benzo[d]imidazol-2-yl)propyl)(methyl)amino)ethyl)-6-fluoro-1-isopropyl-1,2,3,4-tetrahydronaphthalen-2-yl (2-methoxyethyl)carbamate]	15
CC(C)[C@H]1c2ccc(F)cc2CC[C@@]1(CCN(C)CCC1(c2nc3ccccc3[nH]2)CC1)OC(=O)N1CCOCC1 [Example 19, (1S,2S)-2-(2-((2-(1-(1H-Benzo[d]imidazol-2-yl)cyclopropyl)ethyl)(methyl)amino)ethyl)-6-fluoro-1-isopropyl-1,2,3,4-tetrahydronaphthalen-2-yl morpholine-4-carboxylate]	23
Cc1ccc(C)c2[nH]c(CCCN(C)CC[C@@]3(OC(=O)NCCN(C)C)CCc4cc(F)ccc4[C@@H]3C(C)C)nc12 [Example 4, (1S,2S)-2-(2-((3-(4,7-Dimethyl-1H-benzo[d]imidazol-2-yl)propyl)(methyl)amino)ethyl)-6-fluoro-1-isopropyl-1,2,3,4-tetrahydronaphthalen-2-yl (2-(dimethylamino)ethyl)carbamate]	2.5
Cc1ccc(C)c2[nH]c(CCCN(C)CC[C@]3(OC(=O)N4CCOCC4)CCc4cc(F)ccc4[C@H]3C(C)C)nc12 [Example 17, (1R,2R)-2-(2-((3-(4,7-Dimethyl-1H-benzo[d]imidazol-2-yl)propyl)(methyl)amino)ethyl)-6-fluoro-1-isopropyl-1,2,3,4-tetrahydronaphthalen-2-yl morpholine-4-carboxylate]	4.3
COc1ccc(Cl)c2[nH]c(CCCN(C)CC[C@@]3(OC(=O)N(C)C)CCc4cc(F)ccc4[C@@H]3C(C)C)nc12 [Example 7, (1S,2S)-2-(2-((3-(7-Chloro-4-methoxy-1H-benzo[d]imidazol-2-yl)propyl)(methyl)amino)ethyl)-6-fluoro-1-isopropyl-1,2,3,4-tetrahydronaphthalen-2-yl dimethylcarbamate]	7.7
CC(C)[C@H]1c2ccc(F)cc2CC[C@@]1(CCN(C)CCCc1nc2c(C(F)(F)F)cc(C(F)(F)F)cc2[nH]1)OC(=O)N1CCOCC1 [Example 8, (1S,2S)-2-(2-((3-(4,6-Bis(trifluoromethyl)-1H-benzo[d]imidazol-2-yl)propyl)(methyl)amino)ethyl)-6-fluoro-1-isopropyl-1,2,3,4-tetrahydronaphthalen-2-yl morpholine-4-carboxylate]	6.8

Other lines, results leading:

EC50 [µM]	Compound
10	CNC(=O)O[C@]1(CCN(C)CCCc2nc3c(OC)ccc(OC)c3[nH]2)CCc2cc(F)ccc2[C@@H]1C(C)C [Example 5, (1S,2S)-2-(2-((3-(4,7-Dimethoxy-1H-benzo[d]imidazol-2-yl)propyl)(methyl)amino)ethyl)-6-fluoro-1-isopropyl-1,2,3,4-tetrahydronaphthalen-2-yl methylcarbamate]
12	COCCNC(=O)O[C@]1(CCN(C)CCC(C)(C)c2nc3ccccc3[nH]2)CCc2cc(F)ccc2[C@@H]1C(C)C [Example 12, (1S,2S)-2-(2-((3-(1H-Benzo[d]imidazol-2-yl)-3-methylbutyl)(methyl)amino)ethyl)-6-fluoro-1-isopropyl-1,2,3,4-tetrahydronaphthalen-2-yl (2-methoxyethyl)carbamate]
12	COCC(=O)O[C@]1(CCN(C)CCCc2nc3ccccc3[nH]2)CCc2cc(F)ccc2[C@@H]1C(C)C [Mibefradil, mibefradil, reference compound]
6	CNC(=O)O[C@]1(CCN(C)CCCc2nc3ccccc3[nH]2)CCc2cc(F)ccc2[C@@H]1C(C)C [Example 1, (1S,2S)-2-(2-((3-(1H-Benzo[d]imidazol-2-yl)propyl)(methyl)amino)ethyl)-6-fluoro-1-isopropyl-1,2,3,4-tetrahydronaphthalen-2-yl methylcarbamate]
6	CNC(=O)O[C@]1(CCN(C)CCCc2nc3c(C)ccc(C)c3[nH]2)CCc2cc(F)ccc2[C@@H]1C(C)C [Example 3, (1S,2S)-2-(2-((3-(4,7-Dimethyl-1H-benzo[d]imidazol-2-yl)propyl)(methyl)amino)ethyl)-6-fluoro-1-isopropyl-1,2,3,4-tetrahydronaphthalen-2-yl methylcarbamate]
9.5	CNC(=O)O[C@]1(CCN(C)CCC(C)(C)c2nc3ccccc3[nH]2)CCc2cc(F)ccc2[C@@H]1C(C)C [Example 10, (1S,2S)-2-(2-((3-(1H-Benzo[d]imidazol-2-yl)-3-methylbutyl)(methyl)amino)ethyl)-6-fluoro-1-isopropyl-1,2,3,4-tetrahydronaphthalen-2-yl methylcarbamate]
10	COC(=O)O[C@]1(CCN(C)CCCc2nc3ccccc3[nH]2)CCc2cc(F)ccc2[C@@H]1C(C)C [Example 2, (1S,2S)-2-(2-((3-(1H-Benzo[d]imidazol-2-yl)propyl)(methyl)amino)ethyl)-6-fluoro-1-isopropyl-1,2,3,4-tetrahydronaphthalen-2-yl methylcarbonate]

same assay, conditions: U251 cells, 72 hours incubation, CCK-8, % viability vs vehicle control

EC50 [µM]	Compound
54	CNC(=O)OC1(CCN(C)CCCc2nc3ccccc3[nH]2)COc2cc(F)ccc2[C@@H]1C(C)C (single isomer, unassigned) [Example 20A]
12	CNC(=O)OC1(CCN(C)CCCc2nc3ccccc3[nH]2)COc2cc(F)ccc2[C@@H]1C(C)C (single isomer, unassigned) [Example 20B]
9	CNC(=O)OC1(CCN(C)CCCc2nc3c(C)ccc(C)c3[nH]2)COc2cc(F)ccc2[C@@H]1C(C)C (stereo partly drawn) [Example 21B, (4S)-3-(2-((3-(4,7-Dimethyl-1H-benzo[d]imidazol-2-yl)propyl)(methyl)amino)ethyl)-7-fluoro-4-isopropylchroman-3-yl methylcarbamate]
